Results as given in the kinase profiling compilation of Christmann-Franck et al. (2016).

Legend:
Test in all cases: radiometric filter-binding kinase assay, Kinase HotSpot
Conditions in all cases: compound 0.5 µM; ATP 10 µM
ABL1 (human) = ABL1 (human) (UniProt P00519)
ABL2 (human) = ABL2 (human) (UniProt P42684)
ADRBK1 (human) = ADRBK1 (human) (UniProt P25098)
AKT3 (human) = AKT3 (human) (UniProt Q9Y243)
BTK (human) = BTK (human) (UniProt Q06187)
CAMK1 (human) = CAMK1 (human) (UniProt Q14012)
CAMK2A (human) = CAMK2A (human) (UniProt Q9UQM7)
CAMK4 (human) = CAMK4 (human) (UniProt Q16566)
CDK1 CCNA2 (human) = CDK1 CCNA2 (human) (UniProt P06493+P20248)
CDK2 CCNA2 (human) = CDK2 CCNA2 (human) (UniProt P24941+P20248)
CDK2 CCNE1 (human) = CDK2 CCNE1 (human) (UniProt P24941+P24864)
CDK7 CCNH MNAT1 (human) = CDK7 CCNH MNAT1 (human) (UniProt P50613+P51948+P51946)
CHUK (human) = CHUK (human) (UniProt O15111)
CSNK1G2 (human) = CSNK1G2 (human) (UniProt P78368)
DYRK4 (human) = DYRK4 (human) (UniProt Q9NR20)
EPHA8 (human) = EPHA8 (human) (UniProt P29322)
GSG2 (human) = GSG2 (human) (UniProt Q8TF76)
GSK3A (human) = GSK3A (human) (UniProt P49840)
IKBKB (human) = IKBKB (human) (UniProt O14920)
INSRR (human) = INSRR (human) (UniProt P14616)
LTK (human) = LTK (human) (UniProt P29376)
MAP3K3 (human) = MAP3K3 (human) (UniProt Q99759)
MAPK10 (human) = MAPK10 (human) (UniProt P53779)
MAPK3 (human) = MAPK3 (human) (UniProt P27361)
MATK (human) = MATK (human) (UniProt P42679)
MET (human) = MET (human) (UniProt P08581)
MST1R (human) = MST1R (human) (UniProt Q04912)
MYLK (human) = MYLK (human) (UniProt Q15746)
MYLK2 (human) = MYLK2 (human) (UniProt Q9H1R3)
NTRK1 (human) = NTRK1 (human) (UniProt P04629)
NTRK3 (human) = NTRK3 (human) (UniProt Q16288)
PAK2 (human) = PAK2 (human) (UniProt Q13177)
PKN1 (human) = PKN1 (human) (UniProt Q16512)
PRKD1 (human) = PRKD1 (human) (UniProt Q15139)
PRKX (human) = PRKX (human) (UniProt P51817)
PTK6 (human) = PTK6 (human) (UniProt Q13882)
RIPK2 (human) = RIPK2 (human) (UniProt O43353)
SRPK1 (human) = SRPK1 (human) (UniProt Q96SB4)
STK25 (human) = STK25 (human) (UniProt O00506)
STK3 (human) = STK3 (human) (UniProt Q13188)
TBK1 (human) = TBK1 (human) (UniProt Q9UHD2)
ULK2 (human) = ULK2 (human) (UniProt Q8IYT8)
Sequence of ULK2 (human) (Q8IYT8 whole entry, looked up): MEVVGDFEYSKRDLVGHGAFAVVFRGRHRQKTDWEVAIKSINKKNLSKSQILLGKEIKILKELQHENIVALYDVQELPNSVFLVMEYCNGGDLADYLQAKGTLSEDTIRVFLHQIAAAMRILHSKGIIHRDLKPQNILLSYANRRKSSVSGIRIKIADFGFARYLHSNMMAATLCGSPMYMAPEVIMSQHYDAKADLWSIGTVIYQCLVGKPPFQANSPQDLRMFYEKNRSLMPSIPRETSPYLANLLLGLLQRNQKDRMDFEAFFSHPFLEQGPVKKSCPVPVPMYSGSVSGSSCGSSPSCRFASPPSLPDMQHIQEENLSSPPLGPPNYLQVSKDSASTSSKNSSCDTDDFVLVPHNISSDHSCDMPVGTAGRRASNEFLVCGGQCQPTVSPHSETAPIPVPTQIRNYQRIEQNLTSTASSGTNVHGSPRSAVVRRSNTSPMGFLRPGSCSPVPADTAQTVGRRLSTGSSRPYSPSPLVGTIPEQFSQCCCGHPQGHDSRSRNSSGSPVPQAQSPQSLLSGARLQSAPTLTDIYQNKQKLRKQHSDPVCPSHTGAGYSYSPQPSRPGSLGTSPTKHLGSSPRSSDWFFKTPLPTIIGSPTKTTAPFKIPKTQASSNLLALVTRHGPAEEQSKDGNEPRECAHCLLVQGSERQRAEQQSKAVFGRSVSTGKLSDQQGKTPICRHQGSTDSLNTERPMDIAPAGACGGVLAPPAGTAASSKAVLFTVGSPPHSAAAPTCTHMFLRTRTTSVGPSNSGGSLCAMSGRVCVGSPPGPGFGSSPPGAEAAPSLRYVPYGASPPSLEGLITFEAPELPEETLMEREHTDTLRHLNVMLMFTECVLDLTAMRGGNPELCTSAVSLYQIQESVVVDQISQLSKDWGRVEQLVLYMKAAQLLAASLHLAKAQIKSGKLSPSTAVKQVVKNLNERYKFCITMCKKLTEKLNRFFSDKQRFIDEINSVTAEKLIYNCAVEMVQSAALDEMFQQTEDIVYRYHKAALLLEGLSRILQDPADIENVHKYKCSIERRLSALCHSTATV

Sequence of PTK6 (human) (Q13882 whole entry, looked up): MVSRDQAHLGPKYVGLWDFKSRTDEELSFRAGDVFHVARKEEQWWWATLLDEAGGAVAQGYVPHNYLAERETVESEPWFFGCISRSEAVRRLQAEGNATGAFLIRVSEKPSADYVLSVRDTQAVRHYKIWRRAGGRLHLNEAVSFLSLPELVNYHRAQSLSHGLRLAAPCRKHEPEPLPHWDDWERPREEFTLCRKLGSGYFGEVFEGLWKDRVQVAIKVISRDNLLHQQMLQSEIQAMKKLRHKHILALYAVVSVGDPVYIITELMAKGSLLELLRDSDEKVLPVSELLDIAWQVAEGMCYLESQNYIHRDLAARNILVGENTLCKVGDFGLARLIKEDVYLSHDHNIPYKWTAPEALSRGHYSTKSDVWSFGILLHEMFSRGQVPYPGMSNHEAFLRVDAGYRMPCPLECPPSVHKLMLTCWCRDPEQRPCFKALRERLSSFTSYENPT
Sequence of CAMK1 (human) (Q14012 whole entry, looked up): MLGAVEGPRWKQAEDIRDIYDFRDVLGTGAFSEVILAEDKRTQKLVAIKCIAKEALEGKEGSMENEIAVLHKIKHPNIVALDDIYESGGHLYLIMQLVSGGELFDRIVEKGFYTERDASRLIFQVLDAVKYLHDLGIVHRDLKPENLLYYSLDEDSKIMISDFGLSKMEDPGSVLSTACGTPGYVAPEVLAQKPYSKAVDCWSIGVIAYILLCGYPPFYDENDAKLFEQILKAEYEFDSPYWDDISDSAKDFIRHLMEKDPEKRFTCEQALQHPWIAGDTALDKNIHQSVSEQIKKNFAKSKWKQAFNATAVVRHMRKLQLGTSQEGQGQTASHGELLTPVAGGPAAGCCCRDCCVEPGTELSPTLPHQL
Sequence of MST1R (human) (Q04912 whole entry, looked up): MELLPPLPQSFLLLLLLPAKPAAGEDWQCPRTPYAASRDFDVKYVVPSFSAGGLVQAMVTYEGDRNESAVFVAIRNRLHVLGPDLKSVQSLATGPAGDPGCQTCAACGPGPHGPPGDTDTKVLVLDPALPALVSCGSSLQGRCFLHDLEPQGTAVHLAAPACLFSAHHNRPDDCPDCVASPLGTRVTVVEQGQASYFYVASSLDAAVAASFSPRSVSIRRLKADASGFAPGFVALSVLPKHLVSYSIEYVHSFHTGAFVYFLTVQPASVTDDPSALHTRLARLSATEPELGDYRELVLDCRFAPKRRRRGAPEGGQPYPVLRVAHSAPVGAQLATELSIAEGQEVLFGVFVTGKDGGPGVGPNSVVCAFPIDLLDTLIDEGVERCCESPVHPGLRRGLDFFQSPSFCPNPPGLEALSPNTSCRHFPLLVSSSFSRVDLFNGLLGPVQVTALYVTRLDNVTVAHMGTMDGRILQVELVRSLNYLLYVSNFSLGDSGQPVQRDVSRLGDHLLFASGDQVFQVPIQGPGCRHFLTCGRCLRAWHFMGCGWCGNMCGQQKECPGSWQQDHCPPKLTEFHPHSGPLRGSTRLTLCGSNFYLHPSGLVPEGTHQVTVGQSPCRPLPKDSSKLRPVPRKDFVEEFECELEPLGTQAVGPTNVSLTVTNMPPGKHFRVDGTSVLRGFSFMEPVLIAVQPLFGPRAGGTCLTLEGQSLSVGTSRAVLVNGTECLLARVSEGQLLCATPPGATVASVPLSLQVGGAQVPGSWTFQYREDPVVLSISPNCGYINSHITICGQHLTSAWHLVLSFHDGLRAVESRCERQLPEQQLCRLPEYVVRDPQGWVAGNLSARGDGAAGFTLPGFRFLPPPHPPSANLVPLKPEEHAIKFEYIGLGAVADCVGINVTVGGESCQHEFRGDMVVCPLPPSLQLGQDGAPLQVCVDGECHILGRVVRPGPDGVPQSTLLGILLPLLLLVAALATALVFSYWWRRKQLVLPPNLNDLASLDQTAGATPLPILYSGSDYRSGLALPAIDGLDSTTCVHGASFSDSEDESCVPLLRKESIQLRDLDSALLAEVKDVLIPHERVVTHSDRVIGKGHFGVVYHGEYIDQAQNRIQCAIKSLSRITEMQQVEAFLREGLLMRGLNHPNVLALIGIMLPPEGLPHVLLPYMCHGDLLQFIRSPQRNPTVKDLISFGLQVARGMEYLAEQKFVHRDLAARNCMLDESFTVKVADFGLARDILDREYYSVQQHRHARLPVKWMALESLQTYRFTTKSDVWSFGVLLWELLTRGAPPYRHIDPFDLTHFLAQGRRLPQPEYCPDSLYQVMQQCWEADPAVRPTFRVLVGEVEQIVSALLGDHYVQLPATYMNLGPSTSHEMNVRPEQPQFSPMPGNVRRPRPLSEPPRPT
Sequence of CAMK2A (human) (Q9UQM7 whole entry, looked up): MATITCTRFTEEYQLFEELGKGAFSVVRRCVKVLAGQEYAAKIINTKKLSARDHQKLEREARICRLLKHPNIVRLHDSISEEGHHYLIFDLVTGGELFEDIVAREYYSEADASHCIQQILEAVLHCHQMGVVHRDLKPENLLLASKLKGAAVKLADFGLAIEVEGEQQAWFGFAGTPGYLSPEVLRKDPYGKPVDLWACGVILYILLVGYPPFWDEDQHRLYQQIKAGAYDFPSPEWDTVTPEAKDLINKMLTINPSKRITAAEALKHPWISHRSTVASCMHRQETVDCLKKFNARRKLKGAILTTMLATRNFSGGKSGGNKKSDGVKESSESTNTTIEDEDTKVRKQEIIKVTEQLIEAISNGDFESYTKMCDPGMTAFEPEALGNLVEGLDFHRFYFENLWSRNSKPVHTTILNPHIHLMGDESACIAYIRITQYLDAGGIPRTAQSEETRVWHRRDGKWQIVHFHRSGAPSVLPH
Sequence of IKBKB (human) (O14920 whole entry, looked up): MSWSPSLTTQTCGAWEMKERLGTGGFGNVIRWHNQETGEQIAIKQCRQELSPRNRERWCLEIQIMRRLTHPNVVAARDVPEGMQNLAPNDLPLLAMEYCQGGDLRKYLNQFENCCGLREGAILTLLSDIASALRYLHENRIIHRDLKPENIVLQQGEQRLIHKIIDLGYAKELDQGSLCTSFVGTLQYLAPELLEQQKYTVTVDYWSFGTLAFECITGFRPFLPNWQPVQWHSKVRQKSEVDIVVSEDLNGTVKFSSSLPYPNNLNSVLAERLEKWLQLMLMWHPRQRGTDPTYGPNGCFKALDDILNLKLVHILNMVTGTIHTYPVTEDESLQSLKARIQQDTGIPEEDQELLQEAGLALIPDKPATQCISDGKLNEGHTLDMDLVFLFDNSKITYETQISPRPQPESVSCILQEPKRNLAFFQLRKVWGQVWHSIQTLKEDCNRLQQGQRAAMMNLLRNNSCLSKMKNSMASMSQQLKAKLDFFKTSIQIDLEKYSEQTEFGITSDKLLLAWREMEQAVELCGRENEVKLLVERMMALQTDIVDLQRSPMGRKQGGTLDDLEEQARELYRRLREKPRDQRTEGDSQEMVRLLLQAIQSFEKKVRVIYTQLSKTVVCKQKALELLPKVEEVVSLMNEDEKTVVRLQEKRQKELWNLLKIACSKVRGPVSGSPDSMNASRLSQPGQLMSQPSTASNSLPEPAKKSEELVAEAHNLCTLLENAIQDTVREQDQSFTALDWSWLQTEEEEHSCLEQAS
Sequence of MATK (human) (P42679 whole entry, looked up): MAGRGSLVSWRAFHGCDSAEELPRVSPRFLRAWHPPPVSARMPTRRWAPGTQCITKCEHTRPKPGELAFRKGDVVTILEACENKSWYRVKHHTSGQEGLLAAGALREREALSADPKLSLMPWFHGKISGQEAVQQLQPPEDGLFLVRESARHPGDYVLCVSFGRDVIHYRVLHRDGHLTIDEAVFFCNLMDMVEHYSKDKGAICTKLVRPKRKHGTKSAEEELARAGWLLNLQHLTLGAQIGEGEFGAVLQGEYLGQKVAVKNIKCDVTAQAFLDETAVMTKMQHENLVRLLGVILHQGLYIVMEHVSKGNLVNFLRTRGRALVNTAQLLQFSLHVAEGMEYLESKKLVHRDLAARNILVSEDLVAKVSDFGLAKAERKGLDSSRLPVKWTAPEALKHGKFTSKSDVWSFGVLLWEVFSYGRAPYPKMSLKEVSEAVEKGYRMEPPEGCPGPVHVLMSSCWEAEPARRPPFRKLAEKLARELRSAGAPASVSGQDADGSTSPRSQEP

`COc1cccc(-c2cc(=O)c3ccccc3o2)c1N` gave a residual activity (ABL1 (human)) of 93.9%, a residual activity (ABL2 (human)) of 96.8% and a residual activity (ADRBK1 (human)) of 99.6%. The residual activity (AKT3 (human)) was 101%, the residual activity (BTK (human)) was 83.7% and the residual activity (CAMK1 (human)) was 98.5%. The residual activity (CAMK2A (human)) was 93.6%, the residual activity (CAMK4 (human)) was 104% and the residual activity (CDK1 CCNA2 (human)) was 83.8%. The residual activity (CDK2 CCNA2 (human)) was 102%, the residual activity (CDK2 CCNE1 (human)) was 95.3% and the residual activity (CDK7 CCNH MNAT1 (human)) was 99.9%. The residual activity (CHUK (human)) was 104%, the residual activity (CSNK1G2 (human)) was 98.4% and the residual activity (DYRK4 (human)) was 108%. For the same compound, the residual activity (EPHA8 (human)) was 96.3%, the residual activity (GSG2 (human)) was 95.7% and the residual activity (GSK3A (human)) was 97%. For the same compound, the residual activity (IKBKB (human)) was 92.5%, the residual activity (INSRR (human)) was 98.4% and the residual activity (LTK (human)) was 75.4%. It also gave a residual activity (MAP3K3 (human)) of 83%, a residual activity (MAPK10 (human)) of 85.7% and a residual activity (MAPK3 (human)) of 102%. It also gave a residual activity (MATK (human)) of 88.6%, a residual activity (MET (human)) of 112% and a residual activity (MST1R (human)) of 93.4%. It also gave a residual activity (MYLK (human)) of 98.9%, a residual activity (MYLK2 (human)) of 101% and a residual activity (NTRK1 (human)) of 99.9%. The residual activity (NTRK3 (human)) was 99.3%, the residual activity (PAK2 (human)) was 104% and the residual activity (PKN1 (human)) was 102%. For the same compound, the residual activity (PRKD1 (human)) was 103%, the residual activity (PRKX (human)) was 101% and the residual activity (PTK6 (human)) was 92.6%. It also gave a residual activity (RIPK2 (human)) of 87.5%, a residual activity (SRPK1 (human)) of 93.4% and a residual activity (STK25 (human)) of 106%. For the same compound, the residual activity (STK3 (human)) was 97.1%, the residual activity (TBK1 (human)) was 94.3% and the residual activity (ULK2 (human)) was 109%.

`Cc1cc(Nc2nc(-c3ccccc3)nc3ccccc23)n[nH]1` showed a residual activity (ABL1 (human)) of 75.4%, a residual activity (ABL2 (human)) of 42.5% and a residual activity (ADRBK1 (human)) of 106%. It also gave a residual activity (AKT3 (human)) of 95.5%, a residual activity (BTK (human)) of 43.4% and a residual activity (CAMK1 (human)) of 93.1%. The residual activity (CAMK2A (human)) was 108%, the residual activity (CAMK4 (human)) was 94.1% and the residual activity (CDK1 CCNA2 (human)) was 95%. For the same compound, the residual activity (CDK2 CCNA2 (human)) was 96.9%, the residual activity (CDK2 CCNE1 (human)) was 75.4% and the residual activity (CDK7 CCNH MNAT1 (human)) was 73.3%. For the same compound, the residual activity (CHUK (human)) was 96.5%, the residual activity (CSNK1G2 (human)) was 69.3% and the residual activity (DYRK4 (human)) was 103%. The residual activity (EPHA8 (human)) was 98.2%, the residual activity (GSG2 (human)) was 90.5% and the residual activity (GSK3A (human)) was 11.3%. For the same compound, the residual activity (IKBKB (human)) was 69.8%, the residual activity (INSRR (human)) was 20.7% and the residual activity (LTK (human)) was 63.6%. The residual activity (MAP3K3 (human)) was 82.9%, the residual activity (MAPK10 (human)) was 88.7% and the residual activity (MAPK3 (human)) was 80.8%. It also gave a residual activity (MATK (human)) of 96.1%, a residual activity (MET (human)) of 130% and a residual activity (MST1R (human)) of 96.6%. It also gave a residual activity (MYLK (human)) of 60.2%, a residual activity (MYLK2 (human)) of 62.8% and a residual activity (NTRK1 (human)) of 14.6%. For the same compound, the residual activity (NTRK3 (human)) was 2.01%, the residual activity (PAK2 (human)) was 91.8% and the residual activity (PKN1 (human)) was 89.9%. For the same compound, the residual activity (PRKD1 (human)) was 77.4%, the residual activity (PRKX (human)) was 101% and the residual activity (PTK6 (human)) was 61.6%. The residual activity (RIPK2 (human)) was 70.4%, the residual activity (SRPK1 (human)) was 90.1% and the residual activity (STK25 (human)) was 86.7%. For the same compound, the residual activity (STK3 (human)) was 58.5%, the residual activity (TBK1 (human)) was 53.8% and the residual activity (ULK2 (human)) was 95.1%.

`CCOc1cc2ncnc(Nc3cccc(Br)c3)c2cc1OCC` gave a residual activity (ABL1 (human)) of 64.3%, a residual activity (ABL2 (human)) of 52.1% and a residual activity (ADRBK1 (human)) of 95.4%. It also gave a residual activity (AKT3 (human)) of 104%, a residual activity (BTK (human)) of 72.7% and a residual activity (CAMK1 (human)) of 79.9%. For the same compound, the residual activity (CAMK2A (human)) was 103%, the residual activity (CAMK4 (human)) was 98.7% and the residual activity (CDK1 CCNA2 (human)) was 94.7%. The residual activity (CDK2 CCNA2 (human)) was 91.9%, the residual activity (CDK2 CCNE1 (human)) was 94.4% and the residual activity (CDK7 CCNH MNAT1 (human)) was 93%. For the same compound, the residual activity (CHUK (human)) was 105%, the residual activity (CSNK1G2 (human)) was 103% and the residual activity (DYRK4 (human)) was 96.9%. For the same compound, the residual activity (EPHA8 (human)) was 87.3%, the residual activity (GSG2 (human)) was 90.6% and the residual activity (GSK3A (human)) was 110%. The residual activity (IKBKB (human)) was 102%, the residual activity (INSRR (human)) was 88.8% and the residual activity (LTK (human)) was 69.7%. It also gave a residual activity (MAP3K3 (human)) of 92.9%, a residual activity (MAPK10 (human)) of 101% and a residual activity (MAPK3 (human)) of 113%. It also gave a residual activity (MATK (human)) of 90.5%, a residual activity (MET (human)) of 78.6% and a residual activity (MST1R (human)) of 102%. It also gave a residual activity (MYLK (human)) of 89.4%, a residual activity (MYLK2 (human)) of 93.5% and a residual activity (NTRK1 (human)) of 89.6%. For the same compound, the residual activity (NTRK3 (human)) was 91.5%, the residual activity (PAK2 (human)) was 105% and the residual activity (PKN1 (human)) was 100%. It also gave a residual activity (PRKD1 (human)) of 95.4%, a residual activity (PRKX (human)) of 99.8% and a residual activity (PTK6 (human)) of 27.7%. It also gave a residual activity (RIPK2 (human)) of 39.8%, a residual activity (SRPK1 (human)) of 102% and a residual activity (STK25 (human)) of 90.1%. It also gave a residual activity (STK3 (human)) of 99.5%, a residual activity (TBK1 (human)) of 85.4% and a residual activity (ULK2 (human)) of 82.8%.
